Results published in patent US8269000B2, “Substituted pyrimidine and triazine compounds” (Gruenenthal GmbH, priority 2008, dated 2012).

molecular target: T1, rat B1R (Rattus norvegicus, UniProt P97583); test: FLIPR Ca2+ functional study on bradykinin receptor 1 (rB1R CHO K1 cells); assay type: cell-based; details: % inhibition rat B1R at 10 μM
T1 construct: expressed in transfected cells; host or cells: CHO K1 cells
T1 sequence (P97583 1-337): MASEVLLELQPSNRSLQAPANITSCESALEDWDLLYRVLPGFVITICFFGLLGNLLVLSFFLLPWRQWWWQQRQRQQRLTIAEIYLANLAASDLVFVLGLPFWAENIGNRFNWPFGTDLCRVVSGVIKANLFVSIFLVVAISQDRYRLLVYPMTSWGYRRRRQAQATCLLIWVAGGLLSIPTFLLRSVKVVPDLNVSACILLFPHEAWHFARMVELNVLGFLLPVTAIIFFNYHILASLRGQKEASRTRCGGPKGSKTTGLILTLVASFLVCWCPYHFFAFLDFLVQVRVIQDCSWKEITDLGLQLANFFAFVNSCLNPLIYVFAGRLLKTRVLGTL
Outline: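 CHO K1 cells stably expressing human or rat B1R were loaded with Fluo-4 and read on FLIPR (ex 488/em 540 nm, peak counts). Test compound (10 μM, or a concentration range for IC50) was added first for % activation versus control agonist; after 10-20 min, EC80 Lys-Des-Arg9-bradykinin (human) or Des-Arg9-bradykinin (rat) was added, giving % inhibition of maximum. n=2-3, N≥2.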

Compound | % inh. (rat B1R) 10 μM [%]
COc1cc(C)c(S(=O)(=O)N2CCCCC2COc2nccc(N3CCC(c4cccs4)(N(C)C)CC3)n2)c(C)c1 (stereo not shown) [G_CC-070, [1-[2-[[1-[(4-methoxy-2,6-dimethyl-phenyl)sulfonyl]-piperidin-2-yl]-methoxy]-pyrimidin-4-yl]-4-thiophen-2-yl-pipendin-4-yl]-dimethyl-amine] | 95

same assay, conditions: CHO-K1, % inhibition rat B1R at 10 μM, read-out: % inh. (rat B1R) 10 μM

Compound | inhibition at 10 µM [%]
COc1cc(C)c(S(=O)(=O)N2CCC[C@H]2COc2nccc(N3CCC(N4CCN(C)CC4)CC3)n2)c(C)c1 [G_CC-017, 2-[[(2S)-1-(4-methoxy-2,6-dimethylphenyl)sulfonyl-2-pyrrolidinyl]methoxy]-4-[4-(4-methyl-1-piperazinyl)-1-piperidinyl]pyrimidine] | 98
COc1cc(C)c(S(=O)(=O)N2CCCCC2COc2nccc(N3CC4CC3CN4Cc3ccncc3)n2)c(C)c1 (stereo not shown) [G_CC-056, 5-[2-[[1-(4-methoxy-2,6-dimethylphenyl)sulfonyl-2-piperidinyl]methoxy]-4-pyrimidinyl]-2-(4-pyridylmethyl)-2,5-diazabicyclo[2.2.1]heptane] | 98
COc1cc(C)c(S(=O)(=O)N2CCC[C@H]2COc2nccc(N3CCN(C)CC3)n2)c(C)c1 [G_CC-015, 2-[[(2S)-1-(4-methoxy-2,6-dimethylphenyl)sulfonyl-2-pyrrolidinyl]methoxy]-4-(4-methyl-1-piperazinyl)pyrimidine] | 83
COc1cc(C)c(S(=O)(=O)N2CCCCC2COc2ccnc(N3CCCC3Cc3ccccn3)n2)c(C)c1 (stereo not shown) [H_CC-078, 4-[[1-[(4-methoxy-2,6-dimethyl-phenyl)sulfonyl]-piperidin-2-yl]-methoxy]-2-[2-(pyridin-2-yl-methyl)-pyrrolidin-1-yl]-pyrimidine] | 77
COc1cc(C)c(S(=O)(=O)N2c3ccccc3C[C@H]2COc2nccc(N3CC4CC3CN4Cc3ccc(F)cc3)n2)c(C)c1 (stereo partly drawn) [G_CC-130, (2S)-2-[[4-[2-[(4-fluorophenyl)-methyl]-2,5-diazabicyclo[2.2.1]heptan-5-yl]-pyrimidin-2-yl]oxy-methyl]-1-[(4-methoxy-2,6-dimethyl-phenyl)sulfonyl]-2,3-dihydro-1H-indole] | 61
COc1cc(C)c(S(=O)(=O)N(C)CCOc2nccc(N3CCC4(CCN(Cc5ccccc5)C4=O)CC3)n2)c(C)c1 [G_CC-046, N-[2-[[4-(3-benzyl-4-oxo-3,8-diazaspiro[4.5]decan-8-yl)-2-pyrimidinyl]oxy]ethyl]-4-methoxy-N,2,6-trimethylbenzenesulfonamide] | 96
COc1cc(C)c(S(=O)(=O)N2CCCCC2COc2ccnc(N3CCC(O)(c4cccnc4)CC3)n2)c(C)c1 (stereo not shown) [H_CC-007, 1-[4-[[1-(4-methoxy-2,6-dimethylphenyl)sulfonyl-2-piperidinyl]methoxy]-2-pyrimidinyl]-4-(3-pyridyl)-4-piperidinol] | 71
COc1cc(C)c(S(=O)(=O)N2c3ccccc3C[C@H]2COc2nccc(N3CCC(c4cccs4)(N(C)C)CC3)n2)c(C)c1 [G_CC-125, [1-[2-[[(2S)-1-[(4-methoxy-2,6-dimethyl-phenyl)sulfonyl]-2,3-dihydro-1H-indol-2-yl]-methoxy]-pyrimidin-4-yl]-4-thiophen-2-yl-piperidin-4-yl]-dimethyl-amine] | 58
COc1cc(C)c(S(=O)(=O)N2CC(Oc3nccc(N(C)CCCN4CCC(c5ccccc5)(N(C)C)CC4)n3)C2)c(C)c1 [G_CC-126, 3-(4-dimethylamino-4-phenyl-piperidin-1-yl)-propyl-[2-[1-[(4-methoxy-2,6-dimethyl-phenyl)sulfonyl]-azetidin-3-yl]oxy-pyrimidin-4-yl]-methyl-amine] | 77
COc1cc(C)c(S(=O)(=O)N2CCCCC2COc2nccc(N3CCC(O)(c4ccncc4)CC3)n2)c(C)c1 (stereo not shown) [G_CC-111, 1-[2-[[1-[(4-methoxy-2,6-dimethyl-phenyl)sulfonyl]-piperidin-2-yl]-methoxy]-pyrimidin-4-yl]-4-pyridin-4-yl-piperidin-4-ol] | 90
COc1cc(C)c(S(=O)(=O)N2CCCCC2COc2nccc(N3CCC(c4cccc(F)c4)(N4CCN(C)CC4)CC3)n2)c(C)c1 (stereo not shown) [G_CC-104, 4-[4-(3-fluorophenyl)-4-(4-methyl-piperazin-1-yl)-piperidin-1-yl]-2-[[1-[(4-methoxy-2,6-dimethyl-phenyl)sulfonyl]-piperidin-2-yl]-methoxy]-pyrimidine] | 101
COc1cc(C)c(S(=O)(=O)N2CCC[C@@H]2COc2ccnc(N3CCCC3Cc3ccccn3)n2)c(C)c1 (stereo partly drawn) [H_CC-084, 4-[[(2R)-1-[(4-methoxy-2,6-dimethyl-phenyl)sulfonyl]-pyrrolidin-2-yl]-methoxy]-2-[2-(pyridin-2-yl-methyl)-pyrrolidin-1-yl]-pyrimidine] | 55
COc1cc(C)c(S(=O)(=O)N2c3ccccc3C[C@H]2COc2ccnc(N3CCC(CCN4CCCCC4)CC3)n2)c(C)c1 [H_CC-028, (2S)-1-(4-methoxy-2,6-dimethylphenyl)sulfonyl-2-[[2-[4-[2-(1-piperidyl)ethyl]-1-piperidinyl]-4-pyrimidinyl]oxymethyl]indoline] | 83
COc1cc(C)c(S(=O)(=O)N2CCC[C@H]2COc2nccc(N(C)CCN3CCC(c4ccccc4)(N(C)C)CC3)n2)c(C)c1 [G_CC-088, 2-(4-dimethylamino-4-phenyl-piperidin-1-yl)-ethyl-[2-[[(2S)-1-[(4-methoxy-2,6-dimethyl-phenyl)sulfonyl]-pyrrolidin-2-yl]-methoxy]-pyrimidin-4-yl]-methyl-amine] | 100
CCCCC1(N(C)C)CCN(CCN(C)c2ccnc(OCCN(C)S(=O)(=O)c3c(C)cc(OC)cc3C)n2)CC1 [G_CC-120, N-[2-[4-[2-(4-butyl-4-dimethylamino-piperidin-1-yl)-ethyl-methyl-amino]-pyrimidin-2-yl]oxy-ethyl]-4-methoxy-N,2,6-trimethyl-benzenesulfonic acid amide] | 86
COc1cc(C)c(S(=O)(=O)N(C)C(COc2nccc(N3CCC(C)(N4CCOCC4)CC3)n2)c2ccccc2)c(C)c1 (stereo not shown) [G_CC-137, 4-methoxy-N,2,6-trimethyl-N-[2-[4-(4-methyl-4-morpholin-4-yl-piperidin-1-yl)-pyrimidin-2-yl]oxy-1-phenyl-ethyl]benzenesulfonic acid amide] | 77
COc1cc(C)c(S(=O)(=O)N2CCCCC2COc2ccnc(N3CCC(c4cccc(F)c4)(N4CCN(C)CC4)CC3)n2)c(C)c1 (stereo not shown) [H_CC-091, 2-[4-(3-fluorophenyl)-4-(4-methyl-piperazin-1-yl)-piperidin-1-yl]-4-[[1-[(4-methoxy-2,6-dimethyl-phenyl)sulfonyl]-piperidin-2-yl]-methoxy]-pyrimidine] | 73
COc1cc(C)c(S(=O)(=O)N(C)CCOc2nccc(N3CCC4(CC3)C(=O)N(C)CC4c3ccc(F)cc3)n2)c(C)c1 (stereo not shown) [G_CC-044, N-[2-[[4-[1-(4-fluorophenyl)-3-methyl-4-oxo-3,8-diazaspiro[4.5]decan-8-yl]-2-pyrimidinyl]oxy]ethyl]-4-methoxy-N,2,6-trimethylbenzenesulfonamide] | 68
COc1cc(C)c(S(=O)(=O)N2CCCCC2COc2ccnc(N3CCC(C)(N4CCOCC4)CC3)n2)c(C)c1 (stereo not shown) [H_CC-081, 4-[1-[4-[[1-[(4-methoxy-2,6-dimethyl-phenyl)sulfonyl]-piperidin-2-yl]-methoxy]-pyrimidin-2-yl]-4-methyl-piperidin-4-yl]-morpholine] | 61
CCCCC1(N(C)C)CCN(CCN(C)c2nccc(OC[C@@H]3Cc4ccccc4N3S(=O)(=O)c3c(C)cc(OC)cc3C)n2)CC1 [H_CC-058, 2-(4-butyl-4-dimethylamino-piperidin-1-yl)-ethyl-[4-[[(2S)-1-[(4-methoxy-2,6-dimethyl-phenyl)sulfonyl]-2,3-dihydro-1H-indol-2-yl]-methoxy]-pyrimidin-2-yl]-methyl-amine] | 97
COc1cc(C)c(S(=O)(=O)N(C)CCOc2ccnc(N(C)CCN3CCC(c4ccccc4)(N(C)C)CC3)n2)c(C)c1 [H_CC-067, N-[2-[2-[2-(4-dimethylamino-4-phenyl-piperidin-1-yl)-ethyl-methyl-amino]-pyrimidin-4-yl]oxy-ethyl]-4-methoxy-N,2,6-trimethyl-benzenesulfonic acid amide] | 59
COc1cc(C)c(S(=O)(=O)N2CCC[C@H]2COc2nccc(N3CC4CC3CN4Cc3ccncc3)n2)c(C)c1 (stereo partly drawn) [G_CC-058, 5-[2-[[(2S)-1-(4-methoxy-2,6-dimethylphenyl)sulfonyl-2-pyrrolidinyl)methoxy]-4-pyrimidinyl]-2-(4-pyridylmethyl)-2,5-diazabicyclo[2.2.1]heptane] | 93
COc1cc(C)c(S(=O)(=O)N2CCC[C@H]2COc2nccc(N3CCC4(CCN(Cc5ccccc5)C4=O)CC3)n2)c(C)c1 [G_CC-053, 3-benzyl-8-[2-[[(2S)-1-(4-methoxy-2,6-dimethylphenyl)sulfonyl-2-pyrrolidinyl)methoxy]-4-pyrimidinyl]-3,8-diazaspiro[4.5]decan-4-one] | 96
CCCCC1(N(C)C)CCN(c2ccnc(OCCN(C)S(=O)(=O)c3c(C)cc(OC)cc3C)n2)CC1 [G_CC-089, N-[2-[4-(4-butyl-4-dimethylamino-piperidin-1-yl)-pyrimidin-2-yl]oxy-ethyl]-4-methoxy-N,2,6-trimethyl-benzenesulfonic acid amide] | 93
